Data reported in the NIST ThermoML archive (doi:10.1016/j.fluid.2004.09.013).

Settings: for mass density: Fluid (supercritical or subcritical phases), Vibrating tube method; for vapor or sublimation pressure: Liquid

C/C=C\C [(Z)-2-butene]
Settings	mass density [kg/m3]
273.24 K, 530 kPa	644.99
273.24 K, 5019 kPa	650.08
273.24 K, 10002 kPa	655.33
273.24 K, 15013 kPa	660.23
273.24 K, 19996 kPa	664.79
273.24 K, 24988 kPa	669.08
273.24 K, 29997 kPa	673.15
273.24 K, 35005 kPa	677.01
273.24 K, 39991 kPa	680.66
278.25 K, 531 kPa	639.3
278.25 K, 4987 kPa	644.61
278.25 K, 10000 kPa	650.13
278.25 K, 15004 kPa	655.23
278.25 K, 19984 kPa	659.97
278.25 K, 25004 kPa	664.45
278.25 K, 30003 kPa	668.65
278.25 K, 34993 kPa	672.62
278.25 K, 39994 kPa	676.39
283.26 K, 528 kPa	633.56
283.26 K, 5005 kPa	639.17
283.26 K, 9984 kPa	644.91
283.26 K, 14999 kPa	650.24
283.26 K, 19995 kPa	655.17
283.26 K, 25010 kPa	659.81
283.26 K, 29992 kPa	664.14
283.26 K, 35004 kPa	668.25
283.26 K, 39997 kPa	672.15
288.27 K, 531 kPa	627.75
288.27 K, 4995 kPa	633.64
288.27 K, 10005 kPa	639.69
288.27 K, 14999 kPa	645.22
288.27 K, 20014 kPa	650.37
288.27 K, 25005 kPa	655.16
288.27 K, 29991 kPa	659.64
288.27 K, 34992 kPa	663.87
288.27 K, 40003 kPa	667.9
293.28 K, 532 kPa	621.87
293.28 K, 4990 kPa	628.07
293.28 K, 10006 kPa	634.4
293.28 K, 20011 kPa	645.53
293.28 K, 25006 kPa	650.48
293.28 K, 30000 kPa	655.14
293.28 K, 34996 kPa	659.52
293.28 K, 39986 kPa	663.65
293.29 K, 14995 kPa	640.16
298.29 K, 29993 kPa	650.63
298.3 K, 528 kPa	615.89
298.3 K, 5009 kPa	622.46
298.3 K, 9991 kPa	629.06
298.3 K, 14998 kPa	635.11
298.3 K, 20004 kPa	640.67
298.3 K, 24996 kPa	645.82
298.3 K, 34987 kPa	655.14
298.3 K, 40002 kPa	659.43
303.31 K, 568 kPa	609.88
303.31 K, 4986 kPa	616.72
303.31 K, 9987 kPa	623.69
303.31 K, 15011 kPa	630.03
303.31 K, 20004 kPa	635.8
303.31 K, 25003 kPa	641.15
303.31 K, 29993 kPa	646.12
303.31 K, 34986 kPa	650.78
303.31 K, 40003 kPa	655.2
308.32 K, 610 kPa	603.77
308.32 K, 5003 kPa	610.96
308.32 K, 9990 kPa	618.26
308.32 K, 14985 kPa	624.84
308.32 K, 19996 kPa	630.86
308.32 K, 24991 kPa	636.41
308.32 K, 29986 kPa	641.56
308.32 K, 34983 kPa	646.37
308.32 K, 40002 kPa	650.92
313.2 K, 842 kPa	598.01
313.2 K, 25002 kPa	631.74
313.21 K, 4983 kPa	605.15
313.21 K, 9999 kPa	612.86
313.21 K, 14998 kPa	619.73
313.21 K, 19993 kPa	625.98
313.21 K, 29990 kPa	637.05
313.21 K, 34989 kPa	642.02
313.21 K, 39990 kPa	646.68
318.21 K, 898 kPa	591.77
318.21 K, 4989 kPa	599.26
318.21 K, 9999 kPa	607.36
318.21 K, 14989 kPa	614.54
318.21 K, 19986 kPa	621.05
318.21 K, 24990 kPa	627.03
318.21 K, 30002 kPa	632.56
318.21 K, 34994 kPa	637.68
318.21 K, 39987 kPa	642.47
323.21 K, 965 kPa	585.41
323.21 K, 4984 kPa	593.22
323.21 K, 9985 kPa	601.76
323.21 K, 14986 kPa	609.3
323.21 K, 20004 kPa	616.11
323.21 K, 25000 kPa	622.31
323.21 K, 29993 kPa	628.01
323.21 K, 34993 kPa	633.32
323.21 K, 40000 kPa	638.29
328.21 K, 14983 kPa	604.03
328.21 K, 25010 kPa	617.59
328.21 K, 34998 kPa	628.95
328.21 K, 40002 kPa	634.07
328.22 K, 1031 kPa	578.91
328.22 K, 4985 kPa	587.11
328.22 K, 9992 kPa	596.13
328.22 K, 19995 kPa	611.12
328.22 K, 29991 kPa	623.48
333.22 K, 1102 kPa	572.28
333.22 K, 4993 kPa	580.89
333.22 K, 10002 kPa	590.44

Settings	vapor or sublimation pressure [kPa]
290.72 K	166.5
297.95 K	212.17
306.92 K	280.95
316.39 K	369.5
326.09 K	483.32
331.25 K	549.64
